Read-outs that look alike come from different tables or passages of the source. Each block holds one molecule with its values, some of them ahead of it.
Assays:
[1] = biological target: HIF-1a (Homo sapiens, UniProt Q16665); settings: cited from earlier work
[2] = tested on: PHD; settings: cited from earlier work
[3] = biological target: HIF-2a (Homo sapiens, UniProt Q99814); settings: target HIF-2a; cited from earlier work
[4] = biological target: T1, EPO/EPOR interaction (EPOR-CD131-Fc and EPO) (Homo sapiens, UniProt P19235+P32927); assay: Octet blocking of the EPO/EPOR interaction by hybridoma supernatants; format: binding; settings: EPO 10 nM
T1 construct: Chimeric Fc fusion proteins of the extracellular domains of human EPOR and human CD131; purchased Sino Biological CT010-H02H
T1 sequence (P19235 25-250 limits assumed): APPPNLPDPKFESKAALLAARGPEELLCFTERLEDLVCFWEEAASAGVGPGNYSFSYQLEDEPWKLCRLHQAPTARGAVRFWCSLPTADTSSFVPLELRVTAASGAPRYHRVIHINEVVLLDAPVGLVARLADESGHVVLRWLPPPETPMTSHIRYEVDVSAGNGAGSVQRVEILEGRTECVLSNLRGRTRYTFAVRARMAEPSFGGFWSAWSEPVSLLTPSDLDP
T1 sequence (P32927 17-443 limits assumed): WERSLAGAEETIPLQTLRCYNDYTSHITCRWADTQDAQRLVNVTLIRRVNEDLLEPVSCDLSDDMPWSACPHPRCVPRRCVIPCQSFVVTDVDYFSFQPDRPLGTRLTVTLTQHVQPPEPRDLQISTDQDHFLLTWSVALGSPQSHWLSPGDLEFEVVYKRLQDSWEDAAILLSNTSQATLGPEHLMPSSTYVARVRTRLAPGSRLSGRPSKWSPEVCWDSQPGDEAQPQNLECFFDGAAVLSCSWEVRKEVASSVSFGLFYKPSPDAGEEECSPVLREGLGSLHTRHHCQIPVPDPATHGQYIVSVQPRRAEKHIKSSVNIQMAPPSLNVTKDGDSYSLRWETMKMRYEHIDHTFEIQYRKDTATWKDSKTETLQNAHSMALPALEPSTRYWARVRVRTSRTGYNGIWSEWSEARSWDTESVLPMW

HIF-2a, sequence (Q99814 whole entry): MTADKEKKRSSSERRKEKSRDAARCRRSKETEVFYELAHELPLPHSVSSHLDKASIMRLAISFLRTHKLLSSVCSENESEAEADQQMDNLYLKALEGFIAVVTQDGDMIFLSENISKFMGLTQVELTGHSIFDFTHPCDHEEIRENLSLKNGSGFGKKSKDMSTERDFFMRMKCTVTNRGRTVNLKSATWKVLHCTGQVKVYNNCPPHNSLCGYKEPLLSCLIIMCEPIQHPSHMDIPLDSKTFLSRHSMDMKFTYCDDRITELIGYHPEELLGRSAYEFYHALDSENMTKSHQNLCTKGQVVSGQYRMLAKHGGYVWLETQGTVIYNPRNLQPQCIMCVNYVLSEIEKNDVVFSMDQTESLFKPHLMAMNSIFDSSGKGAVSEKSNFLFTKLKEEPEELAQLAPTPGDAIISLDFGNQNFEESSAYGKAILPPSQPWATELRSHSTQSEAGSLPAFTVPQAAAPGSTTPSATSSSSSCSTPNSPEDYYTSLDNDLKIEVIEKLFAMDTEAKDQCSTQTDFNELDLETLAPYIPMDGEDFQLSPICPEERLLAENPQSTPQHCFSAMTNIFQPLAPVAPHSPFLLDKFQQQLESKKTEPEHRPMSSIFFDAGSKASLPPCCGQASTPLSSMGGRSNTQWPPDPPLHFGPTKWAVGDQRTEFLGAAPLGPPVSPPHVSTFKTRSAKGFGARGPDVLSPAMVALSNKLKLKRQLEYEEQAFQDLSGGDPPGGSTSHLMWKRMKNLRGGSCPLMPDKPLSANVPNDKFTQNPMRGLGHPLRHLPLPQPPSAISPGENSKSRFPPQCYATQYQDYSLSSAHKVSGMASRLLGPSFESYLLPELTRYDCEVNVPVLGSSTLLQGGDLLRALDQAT
HIF-1a, sequence (Q16665 whole entry): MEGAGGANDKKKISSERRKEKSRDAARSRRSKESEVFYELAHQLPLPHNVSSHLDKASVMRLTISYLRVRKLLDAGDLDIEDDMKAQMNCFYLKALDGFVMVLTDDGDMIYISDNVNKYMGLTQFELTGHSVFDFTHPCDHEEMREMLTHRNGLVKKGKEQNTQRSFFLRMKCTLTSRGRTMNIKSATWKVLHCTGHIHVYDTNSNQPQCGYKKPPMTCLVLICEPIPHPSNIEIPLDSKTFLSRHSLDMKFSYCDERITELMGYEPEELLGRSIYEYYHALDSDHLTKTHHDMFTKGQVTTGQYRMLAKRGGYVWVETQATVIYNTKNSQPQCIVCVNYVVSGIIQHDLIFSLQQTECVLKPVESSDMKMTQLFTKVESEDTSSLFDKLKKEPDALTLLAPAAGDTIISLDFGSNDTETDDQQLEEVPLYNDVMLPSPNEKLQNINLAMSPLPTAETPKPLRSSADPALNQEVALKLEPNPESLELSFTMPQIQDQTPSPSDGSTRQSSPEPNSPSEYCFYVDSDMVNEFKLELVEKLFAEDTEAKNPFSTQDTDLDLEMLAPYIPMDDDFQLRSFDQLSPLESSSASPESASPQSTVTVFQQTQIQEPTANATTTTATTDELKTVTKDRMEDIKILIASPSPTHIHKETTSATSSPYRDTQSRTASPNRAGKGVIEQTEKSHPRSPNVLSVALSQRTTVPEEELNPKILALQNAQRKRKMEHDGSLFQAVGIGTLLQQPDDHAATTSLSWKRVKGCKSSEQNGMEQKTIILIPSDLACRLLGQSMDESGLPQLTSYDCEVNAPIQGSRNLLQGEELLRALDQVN

Molecule: CS[C@H]1SC[C@H]2C(=O)N(C)[C@@H](C(C)C)C(=O)OC[C@@H](NC(=O)c3cnc4ccccc4n3)C(=O)N[C@@H](C)C(=O)N(C)[C@@H]1C(=O)N(C)[C@@H](C(C)C)C(=O)OC[C@@H](NC(=O)c1cnc3ccccc3n1)C(=O)N[C@@H](C)C(=O)N2C [Echinomycin]
IC50 ([1]; target HIF-1a, read-out: IC50): 1.2 nM

Molecule: c1ccc(-c2ccc(CNc3nc(-c4ccccn4)nnc3-c3ccccc3)cc2)cc1 [ML228]
IC50 ([2]; target cell empty): 1000 nM

Molecule: COC(=O)c1sccc1N/N=C(\C#N)S(C)(=O)=O [HIF-2α-IN-4]
IC50 [3]: 5000 nM

Molecule: COC(=O)c1ccc(O)c(NC(=O)COc2ccc(C34CC5CC(CC(C5)C3)C4)cc2)c1 [CAY10585 (LW6)]
IC50 ([1]; read-out: IC50): 700 to 2600 nM

Molecule: Cc1ccc(C(=O)COC(=O)c2cccc(NC(=O)c3ccc([N+](=O)[O-])cc3[N+](=O)[O-])c2)cc1 [FM19G11]
IC50 ([1]; target HIF-1a): 80 nM

Molecule: O=[N+]([O-])c1cc(Nc2ccc3nonc3c2[N+](=O)[O-])ccc1Cl [HIF-2α-IN-3]
IC50 [3]: 400 nM

Molecule: O=C(O)CNC(=O)c1ncc(-c2cn(CCCc3ccc(Cl)cc3)nn2)cc1O [Prolyl Hydroxylase inhibitor 1]
IC50 ([2]; target PHD): 62.2 nM

Molecule: O=S(=O)(NCCSSCCNS(=O)(=O)c1cc(Cl)ccc1Cl)c1cc(Cl)ccc1Cl [KC7F2]
IC50 ([1]; target HIF-1a, read-out: IC50): 20000 nM

Molecule: O=[N+]([O-])c1c(Nc2cc(F)cc(Cl)c2)ccc2nonc12 [TC-S 700]
IC50 [3]: 81 nM

Molecule: CN1C(=O)[C@]2(Cc3cn([C@]45C[C@@]67SS[C@@](CO)(C(=O)N6[C@H]4Nc4ccccc45)N(C)C7=O)c4ccccc34)SS[C@@]1(CO)C(=O)N2C [Chetomin]
IC50 ([1]; target HIF-1a, read-out: IC50): 10 nM

Molecule: CC[C@@H](C)C[C@H](C)C[C@H](C)/C=C(\C)[C@H]1OC(O)([C@](C)(O)C(=O)N[C@@H]2C(=O)N3NCCC[C@@H]3C(=O)N(O)CC(=O)N(C)CC(=O)NCC(=O)N(C)CC(=O)O[C@H]2C(C)C)CC[C@@H]1OC (stereo partly shown) [Verucopeptin]
IC50 ([1]; target HIF-1a, read-out: IC50): 220 nM

Molecule: O=c1c(-n2ccnn2)c[nH]n1-c1cc(N2CCOCC2)ncn1 [Molidustat]
IC50 ([2]; target PHD): 450 nM

blocking of the EPO/EPOR interaction [4]: partial blocking
B1: EPORab - M54: hybridoma antibody clone, VH/VK in Table 10 (antibody, V domains shown)
VH: QLQLQESGPGLVKPSETLSLTCSVSGGSISSSGYYWGWIRQPPGKGLDWIGTIYYSGNTNYNPSLNSRVTISVDTSRNQFSLKLRSVTAADTAVYYCARGYSYGPFDYWGQGTLVTVSS
VL: EIVMTQSPATLSVSPGERATLSCRASQSVSSNLAWYQLKPGQAPRLLIYGASTRATGIPARFSGSGSGTEFTLTISSLQSEDFAVYYCHPYNNWPLTFGGGTKVEIK

blocking of the EPO/EPOR interaction [4]: did not block
B2: EPORab - M71: hybridoma antibody clone, VH/VK in Table 10 (antibody, V domains shown)
VH: QVQLVESGAEVKKPRASVKVSCKTSGYTFTRHYMHWVRQAPGQGLEWMGIINPNNNSTSYAQKFQGRITMTRDTSTSTVYMELSSLRSEDTAVYYCARFRIVGTTLYFDYWGQGTLVTVSS
VL: EIVMTQSPATLSVSPGERATLSCRASQSVSSNLAWYQLKPGQAPRLLIYGASTRATGIPARFSGSGSGTEFTLTISSLQSEDFAVYYCHPYNNWPLTFGGGTKVEIK

blocking of the EPO/EPOR interaction [4]: partial blocking
B3: EPORab - M52: hybridoma antibody clone, VH/VK in Table 10 (antibody, V domains shown)
VH: QLQLQESGPGLAKPSETLSLTCTVSGVSISSNSYYWGWIRQPPGKGLEWIGNIYHSGRTYYNPSLRSRVTISVDTSKNQFSLKLNSVTAADTAVYYCARGYSYGAFDYWGQGTLVTVSS
VL: DIQMTQSPSSLSASVGDRVTITCRASQGIRNDLGWYQQKPGKAPKRLIYAASSLQSGIPSRFSGSGSGTEFTLTISSLQPEDFATYYCLQHNNYPWTFGQGTKVEIK

blocking of the EPO/EPOR interaction [4]: partial blocking
B4: EPORab - M19: hybridoma antibody clone, VH/VK in Table 10 (antibody, V domains shown)
VH: QLQLQESGPGLVKPSETLSLTCTVSGGSISSSNHYWGWIRQPPGKGLEWIGTLYYSGSTYYEPSLKSRVTISVDTSMNQFSLNLSSVTATDTAVYNCARGDRYGPFDYWGQGTLVTVSS
VL: DIVMTQSPSSLSASVGDRVTITCRASQGIRDDLGWYQQKPEKAPKRLICAASSLQSGVPSRFSGSGSGTEFTLTISSLQPEDFATYYCLQYNRYPWTFGQGTKVEIK

blocking of the EPO/EPOR interaction [4]: did not block
B5: EPORab - M37: hybridoma antibody clone, VH/VK in Table 10 (antibody, V domains shown)
VH: QVQLQESGPGLVKPSGTLSLTCAVSGGSITTNNWWSWVRQSPGKGLEWIGEIYHSGNTNYNPSLKSRVTMSVDKSKNQFSLNLNSVIVADTAVYYCASALGTYYGAFDTWGQGTMVTVSA
VL: DIQMTQSPSSLSASVGDRVTITCRASQSISNYLNWYQQKPGKAPKLLIYAASSLQSGVPSRFSGSGSGTDFTLTISSLQPEDFTTYYCQQSYGTPYTFGQGAKLQIK

blocking of the EPO/EPOR interaction [4]: did not block
B6: EPORab - M43: hybridoma antibody clone, VH/VK in Table 10 (antibody, V domains shown)
VH: QVQLQESGPGLVKPSGTLSLTCAVSGGSISSSNWWSWVRQPPGKGLEWIGEIYHSGSINYNPSLKSRVTISVDKSKNQFSLKLTSVTAADTAVYYCASALGNYYGAFDLWGQGTMVTVSS
VL: DIVMTQSPSSLSASVGDRVTITCRASQTISSYLNWYQQKPGKAPKLLICAASSLQGGVPSRFSGSGSGTDFTLTISSLQPEDFAPYYCQQSYSTPYTFGQGTKLEIK

blocking of the EPO/EPOR interaction [4]: partial blocking
B7: EPORab - M24: hybridoma antibody clone, VH/VK in Table 10 (antibody, V domains shown)
VH: EVQLVESGGGLVKPGGSLRLSCAASGFTFTNAWMNWVRQAPGKGLEWIGRIKSKTAGETTDYAAPVKGRFTISRDDSKNTLYLQMNSLKTEDTAVYYCTTDPDYGDPYYYYYFMDVWGKGTTVTVSS
VL: DIQMTQSPSSLSASIGDRVTISCRASQSISSYLNWYQQKPGKAPKLLIYGASSLQSGVPSRFSGSGSGTDFTLTISSLQPEDFATYYCQQSYSLPLTFGGGTKVEIK
